# Active and inactive are the calls of the source. The calls are words filed in the database; no cut-off is given here.
# T1: Prostaglandin G/H synthase 2 (Homo sapiens) (UniProt P35354)
# T1 sequence (whole entry): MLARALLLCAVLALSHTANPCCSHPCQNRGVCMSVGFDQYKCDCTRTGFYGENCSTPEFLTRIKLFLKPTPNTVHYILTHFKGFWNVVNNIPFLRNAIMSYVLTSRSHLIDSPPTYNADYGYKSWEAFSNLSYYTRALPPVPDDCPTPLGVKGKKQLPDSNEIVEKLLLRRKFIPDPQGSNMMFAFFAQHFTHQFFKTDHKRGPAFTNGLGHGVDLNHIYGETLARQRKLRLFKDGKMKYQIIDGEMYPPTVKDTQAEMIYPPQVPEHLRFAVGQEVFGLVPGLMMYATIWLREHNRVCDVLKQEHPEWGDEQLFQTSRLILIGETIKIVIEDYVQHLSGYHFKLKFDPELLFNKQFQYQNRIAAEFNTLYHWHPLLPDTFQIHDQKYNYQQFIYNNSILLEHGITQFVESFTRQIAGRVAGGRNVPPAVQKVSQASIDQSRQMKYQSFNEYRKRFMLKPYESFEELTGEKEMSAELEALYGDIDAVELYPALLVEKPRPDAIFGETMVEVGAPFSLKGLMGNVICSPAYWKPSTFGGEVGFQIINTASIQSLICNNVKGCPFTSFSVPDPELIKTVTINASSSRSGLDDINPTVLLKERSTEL
# T2: Prostaglandin G/H synthase 2 (Homo sapiens, UniProt P35354)
# T2 sequence (P35354 whole entry): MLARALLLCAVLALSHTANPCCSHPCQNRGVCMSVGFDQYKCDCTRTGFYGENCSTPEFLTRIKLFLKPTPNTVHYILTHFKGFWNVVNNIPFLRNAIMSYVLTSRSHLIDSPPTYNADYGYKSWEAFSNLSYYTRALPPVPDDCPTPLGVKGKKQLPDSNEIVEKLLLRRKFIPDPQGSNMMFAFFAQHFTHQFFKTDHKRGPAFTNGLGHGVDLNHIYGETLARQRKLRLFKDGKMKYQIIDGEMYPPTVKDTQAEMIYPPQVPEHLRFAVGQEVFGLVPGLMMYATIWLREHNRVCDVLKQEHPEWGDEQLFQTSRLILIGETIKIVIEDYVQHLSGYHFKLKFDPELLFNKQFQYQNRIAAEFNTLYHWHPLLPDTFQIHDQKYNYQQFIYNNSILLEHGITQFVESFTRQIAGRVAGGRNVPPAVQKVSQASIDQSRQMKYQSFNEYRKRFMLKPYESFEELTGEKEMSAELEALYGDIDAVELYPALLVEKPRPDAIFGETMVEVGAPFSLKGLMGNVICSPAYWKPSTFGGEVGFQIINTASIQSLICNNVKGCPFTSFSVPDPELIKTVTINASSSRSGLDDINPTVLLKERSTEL
# Target: T1, Prostaglandin G/H synthase 2 (Homo sapiens)
# Experiment: Inhibition of COX2 at 10 uM by scintillation proximity assay
# Settings: not given
row,Molecule,Activity
1,O=c1c(O)c(-c2cc(O)c(O)c(O)c2)oc2cc(O)cc(O)c12,inactive
2,Oc1cccc(O)c1O,inactive
3,O=C(O)/C=C/c1ccc(O)c(O)c1,inactive
4,C=CCc1ccc(O)c(OC)c1,inactive
5,O=C/C=C/c1ccccc1,inactive

# Target: T2, Prostaglandin G/H synthase 2
# Experiment: Inhibition of COX2
# Settings: not given
row,Molecule,IC50 [µM]
1,O=c1cc(-c2ccc(O)c(O)c2)oc2cc(O)cc(O)c12 [LUTEOLIN],< 349

# Target: T2, Prostaglandin G/H synthase 2
# Experiment: Inhibition of COX2 in LPS-stimulated bone marrow derived mast cells
# Settings: not given
row,Molecule,IC50 [µM]
1,O=c1cc(-c2ccc(O)c(O)c2)oc2cc(O)cc(O)c12 [LUTEOLIN],8.73

# Target: T2, Prostaglandin G/H synthase 2
# Settings: not given
row,Molecule,IC50 [µM]
1,c1ccc(-c2ccc(-c3ccccc3)cc2)cc1 [TANNIN PYROGALLOL],144
2,C[C@H]1[C@H](C)CC[C@]2(C(=O)O)CC[C@]3(C)C(=CC[C@@H]4[C@@]5(C)CC[C@H](O)C(C)(C)[C@@H]5CC[C@]43C)[C@H]12 [URSOLIC ACID],86

# Target: T1, Prostaglandin G/H synthase 2 (Homo sapiens)
# Settings: at 100 µM
# Description: Inhibition of COX2 at 100 uM by scintillation proximity assay
row,Molecule,inhibition [%]
1,C[N+]1(C)CCC[C@H]1C(=O)[O-],< 30
2,O=C(O)c1cc(O)c(O)c(O)c1,< 30
3,O=c1c(O)c(-c2cc(O)c(O)c(O)c2)oc2cc(O)cc(O)c12,62
4,O=c1ccc2ccc(O)cc2o1,< 30
5,O=c1ccc2cc(O[C@@H]3O[C@H](CO)[C@@H](O)[C@H](O)[C@H]3O)c(O)cc2o1,< 30
6,COc1cc([C@@H]2c3cc4c(cc3[C@H](O)[C@H]3COC(=O)[C@H]23)OCO4)cc(OC)c1OC,< 30
7,Oc1cccc(O)c1O,57
8,CC(C)C1=CC2=CC[C@@H]3[C@](C)(CCC[C@@]3(C)C(=O)O)[C@H]2CC1,< 30
9,O=C(O)c1cccnc1,< 30
10,C=C(C)[C@H]1CC=C(C)CC1,< 30
11,C=C(C)[C@@H]1CC[C@]2(CO)CC[C@]3(C)[C@H](CC[C@@H]4[C@@]5(C)CC[C@H](O)C(C)(C)[C@@H]5CC[C@]43C)[C@@H]12,< 30
12,CC(C)=CCC[C@](C)(O)[C@H]1CC=C(C)CC1,< 30
13,CC(C)[C@@H]1CC[C@@H](C)C[C@H]1O,< 30
14,Cn1c(=O)c2[nH]cnc2n(C)c1=O,< 30
15,CC(C)=CCCC(C)CCO (racemic),< 30
16,O=C(O)C1CCCCN1 (stereo not drawn),< 30
17,Oc1ccc(O)cc1,< 30
18,O=C(O)CCCCC1CCSS1 (stereo not drawn),< 30
19,COc1cc2ccc(=O)oc2cc1O,< 30
20,O=C(O)/C=C/c1ccc(O)c(O)c1,32
21,O=C(O)c1cc(O)c2c(c1)[C@@H]([C@H]1c3cc(C(=O)O)cc(O)c3C(=O)c3c(O[C@@H]4O[C@H](CO)[C@@H](O)[C@H](O)[C@H]4O)cccc31)c1cccc(O[C@@H]3O[C@H](CO)[C@@H](O)[C@H](O)[C@H]3O)c1C2=O,< 30
22,CC(C)=CCC[C@@H](C)CC=O,< 30

row,Molecule,inhibition [%]
1,C[C@@H]1O[C@@H](O[C@H]2C[C@@H](O)[C@]3(CO)[C@H]4[C@H](O)C[C@]5(C)[C@@H](C6=CC(=O)OC6)CC[C@]5(O)[C@@H]4CC[C@]3(O)C2)[C@H](O)[C@H](O)[C@H]1O,< 30
2,O=c1ccc2ccccc2o1,< 30
3,CN1[C@@H]2CC[C@H]1C[C@@H](OC(=O)C(CO)c1ccccc1)C2 (mixture of isomers),< 30
4,O=C1C[C@@H](c2ccc(O)cc2)Oc2cc(O)cc(O)c21,< 30
5,COc1ccc(C(=O)O)cc1O,< 30
6,Cn1c(=O)c2c(ncn2C)n(C)c1=O,< 30
7,C[n+]1cccc(C(=O)[O-])c1,< 30
8,C[C@@H]1O[C@@H](OC[C@H]2O[C@@H](Oc3c(-c4ccc(O)c(O)c4)oc4cc(O)cc(O)c4c3=O)[C@H](O)[C@@H](O)[C@@H]2O)[C@H](O)[C@H](O)[C@H]1O,< 30
9,CC[C@H]1CN2CCc3cc(OC)c(OC)cc3[C@@H]2C[C@@H]1C[C@H]1NCCc2cc(OC)c(OC)cc21,< 30
10,OC[C@H]1O[C@@H](Oc2ccc(O)cc2)[C@H](O)[C@@H](O)[C@@H]1O,< 30
11,O=C(O)/C=C/c1ccc(O)cc1,< 30
12,O=c1cc(-c2ccccc2)oc2cc(O)cc(O)c12,< 30
13,O=C(/C=C/c1ccc(O)c(O)c1)O[C@@H]1C[C@](O)(C(=O)O)C[C@@H](O)[C@H]1O,< 30
14,O=c1cc(-c2ccc(O)c(O)c2)oc2cc(O)cc(O)c12 [LUTEOLIN],< 30
15,CC12CCC(CC1=O)C2(C)C (stereo not drawn),< 30
16,CC12CCC(CC1)C(C)(C)O2,< 30
17,CN1[C@@H]2C[C@@H](OC(=O)[C@H](CO)c3ccccc3)C[C@H]1[C@@H]1O[C@H]12,< 30
18,Cc1ccc(C(C)C)c(O)c1,< 30
19,O=C(O)C1=C[C@@H](O)[C@@H](O)[C@H](O)C1,< 30
20,O=C/C=C/c1ccccc1,45
21,O=C(O)[C@]1(O)C[C@H](O)[C@@H](O)[C@@H](O)C1,< 30

# Substrate: CCCCC/C=C\C/C=C\C/C=C\C/C=C\CCCC(=O)O
# Experiment: Activity of COX2
# Settings: not given
row,Molecule,Km [µM]
1,"Prostaglandin G/H synthase 2 (Homo sapiens), P35354 (protein) MLARALLLCAVLALSHTANPCCSHPCQNRGVCMSVGFDQYKCDCTRTGFYGENCSTPEFLTRIKLFLKPTPNTVHYILTHFKGFWNVVNNIPFLRNAIMSYVLTSRSHLIDSPPTYNADYGYKSWEAFSNLSYYTRALPPVPDDCPTPLGVKGKKQLPDSNEIVEKLLLRRKFIPDPQGSNMMFAFFAQHFTHQFFKTDHKRGPAFTNGLGHGVDLNHIYGETLARQRKLRLFKDGKMKYQIIDGEMYPPTVKDTQAEMIYPPQVPEHLRFAVGQEVFGLVPGLMMYATIWLREHNRVCDVLKQEHPEWGDEQLFQTSRLILIGETIKIVIEDYVQHLSGYHFKLKFDPELLFNKQFQYQNRIAAEFNTLYHWHPLLPDTFQIHDQKYNYQQFIYNNSILLEHGITQFVESFTRQIAGRVAGGRNVPPAVQKVSQASIDQSRQMKYQSFNEYRKRFMLKPYESFEELTGEKEMSAELEALYGDIDAVELYPALLVEKPRPDAIFGETMVEVGAPFSLKGLMGNVICSPAYWKPSTFGGEVGFQIINTASIQSLICNNVKGCPFTSFSVPDPELIKTVTINASSSRSGLDDINPTVLLKERSTEL",1

# Source: ChEMBL document CHEMBL1150665, “Screening of ubiquitous plant constituents for COX-2 inhibition with a scintillation proximity based assay” (J Nat Prod, 2002)
